Test results published in patent US4757082A, “Method of inhibiting aromatase” (Eli Lilly and Company, priority 1984, dated 1988).

Molecular target: T1, aromatase (Rattus norvegicus, UniProt P22443)
T1 construct: ovarian microsomes are obtained from rats treated with pregnant mares serum gonadotropin; from tissue; host or cells: ovarian microsomes from rats treated with pregnant mares serum gonadotropin
T1 sequence (P22443 1-508): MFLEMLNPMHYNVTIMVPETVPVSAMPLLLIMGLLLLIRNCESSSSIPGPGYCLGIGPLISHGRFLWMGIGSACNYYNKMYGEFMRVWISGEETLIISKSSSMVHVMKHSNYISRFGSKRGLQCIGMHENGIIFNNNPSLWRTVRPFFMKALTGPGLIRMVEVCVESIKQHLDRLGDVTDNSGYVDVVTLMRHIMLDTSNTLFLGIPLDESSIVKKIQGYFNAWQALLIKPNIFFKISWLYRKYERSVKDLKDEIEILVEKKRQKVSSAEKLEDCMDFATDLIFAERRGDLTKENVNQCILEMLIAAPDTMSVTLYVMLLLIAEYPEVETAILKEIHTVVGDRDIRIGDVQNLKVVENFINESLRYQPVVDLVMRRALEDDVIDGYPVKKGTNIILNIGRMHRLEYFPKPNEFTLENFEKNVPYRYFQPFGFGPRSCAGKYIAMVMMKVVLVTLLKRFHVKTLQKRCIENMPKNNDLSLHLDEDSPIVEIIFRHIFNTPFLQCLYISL
Assay: Aromatase inhibition in the rat ovarian microsome assay
Type: biochemical
Details: rat ovarian microsomes; substrate (androstenedione) concentration 0.1 μM
Method: In this test system, ovarian microsomes are obtained from rats treated with pregnant mares serum gonadotropin. Test compounds are added to reaction vials containing 0.1 μM 4-androstene-3,17-dione, 100,000 dpm 1,2[^3 H]-androstenedione, the microsomes and a NADPH generating system. The concentrations of the inhibitors tested ranged between 0.005 and 10 μM.

EC50: 2 µM
SMILES: c1ccc2c(c1)CCc1ccccc1C2n1ccnc1 [1-(10,11-dihydro-5H--dibenzo-[a,d]cyclohepten-5-yl)-1H--imidazole nitrate]
